Laboratory results reported in US20230029496A1, “AMINO ACID ALTERNATIVE CURING SYSTEM” (THE TEXAS A&M UNIVERSITY SYSTEM, priority 2019, published 2023).
Where “and” joins values, the source holds several entries; their conditions need not be identical. Identical values can stand only once. Like-named read-outs stand apart in the source and are kept apart here. Marks after values point to notes of the source that are not given here.

Tests used:
[1] = tested on: eNOS system
Method: Two (N=2) of these pork loins were cut into four sections (˜1 kg; 8 pieces total) and weighed prior to injection with the test brine solution (Table 8). Initial muscle pH was prior to injection before injection (10, 15, 20 or 25%) as well as brine pH was measured (Table 9). The test brine was manufactured for a targeted 25% injection level (Table 8) and was prepared on the day of manufacture to simulate a commercial ham cure containing water, sodium tri-polyphosphate, salt (NaCl), L-arginine, sodium erythorbate (NaE) and sugar. […] Brine percentages were calculated to simulate ingoing arginine of test tube trials (5569 ingoing arginine, 547 ppm NaE, 0.9% NaCl).
Samples were weighed before and after injection to ensure pickup percentage as close to the target weights of 10, 15, 20, and 25% pickup. Samples were vacuum packaged and held for two hours before thermal processing to simulate previous laboratory test tube trials.
After cooking and stabilization at room temperature, loin sections were sliced perpendicular to the long axis of the muscle fibers to determine if any nitrosylation (nitric oxide (NO) bound to myoglobin) occurred, resulting in the characteristic cured (pink) color. […] Based on an ingoing L-arginine brine concentration of 5545 ppm, there would be approximately 554, 830 and 1110 and 1385 ppm of ingoing L-arginine at 10, 15, 20 and 25% injection levels, respectively.

[2] = pH after immersion, pre-rigor pork semimembranosus muscle (first study); assay type: physicochemical
[3] = tested on: NOS system; assay: Residual nitrite in test tube pork loin sausages (Example 11)
Text: Pork loins from a local meat distributor were procured on Mar. 18, 2019 and tested four weeks later on Apr. 18, 2019. A total of nine pounds of pork loins were split into thirds and ground through kidney, ½″, and ¼″ plates to make a restructured ham sausages formulated (Table 14) to contain either 1000 or 5000 ppm L-arginine which were stuffed in 2″ plastic casings and thermally processed. Three pounds of each grind size (9 pound batch) were mixed with high (5000 ppm), low (1000 ppm), or control (0 ppm) concentrations of brine at 25% addition using a Kitchen aid mixer. It was decided to lower the concentration of the L-arginine from 1500 ppm (Test 3) to 1000 ppm (Test 4) to verify that this concentration can generate acceptable levels of NO to develop cured color and residual nitrite for antioxidant and antimicrobial properties. Control and treatment met batches were stuffed in plastic casings in triplicate for each high, low, and control concentrations in one pound portions. […] The samples were tested for residual nitrite and nitroso-hemochromagen pigment (Table 14) one day after thermal processing cooking (April 19th to April 20th), then eight days after thermal processing on April 26th to determine any cure color fading and residual nitrite.

[4] = tested on: eNOS system; assay: Whole muscle injection or immersion of pork loin/tenderloin with L-arginine test brine without phosphate (Example 9): pH and cured color
Method: Two (N=2) pork loins were procured from the same batch previously described (Mar. 18, 2019 pack date). […] Initial muscle pH was prior to and after injection/immersion and the brine pH was measured as well (Table 11). […] No sodium tri-polyphosphate was added to the brine, only water, salt, arginine, and sodium erythorbate in the same concentration/percentage used for prior benchtop laboratory tests. […] Phosphate was eliminated from the test brine to decrease pH to increase the likelihood of the L-arginine activating the eNOS system found within the meat.
Four (N=4) tenderloins fabricated from four pork loins (Mar. 18, 2019 pack date) were subjected to immersion curing by placing them into the remaining (leftover) test brine (no injection) for approximately 18 hr. were immersed in the remaining brine to simulate previous test tube trials.
After thermal processing, each sample was sliced to determine if any nitrosylation or cure color formation occurred. […] Even though phosphate was not included in the formulation the brine pH was still high. […] It appears that the concentration of L-arginine and the high brine pH may not be at the right amount/level to achieve the desired cured meat reaction. Based on these product failures, it was decided to go back to use the original protocol used in laboratory testing—but use a waterproof sausage casings to create a “pilot plant tube” to make sure the results seen in the laboratory could be replicated in a pilot plant setting.

## N=C(N)NCCC[C@H](N)C(=O)O [L-arginine]
[1]; 10% injection of test brine (Table 8)
  Injected Loin pH: 7.15 and 7.12
[1]; 15% injection of test brine (Table 8)
  Injected Loin pH: 7.09 and 7.08
[1]; 20% injection of test brine (Table 8)
  Injected Loin pH: 7.03 and 7.14
[1]; 25% injection of test brine (Table 8)
  Injected Loin pH: 7.18 and 7.09
[1]; after injection of test brine with sodium tri-polyphosphate
  increase of muscle pH: ~2.0 pH units
[1]; pork loin sections injected 10, 15, 20 or 25%, held two hours, cooked to 145° F.
  cured color formation after cooking: no observable cured color formation
[1]; test brine of Table 8: L-arginine 5545.41 ppm, with sodium tri-polyphosphate, salt, sugar, sodium erythorbate
  Brine pH: 10.55
L-arginine 3000 PPM, Day 1
  pH: 5.91
L-arginine 3000 PPM, Day 7
  pH: 5.86
L-arginine 3000 PPM, Day 14
  pH: 6.02
L-arginine 3000 PPM, Day 28
  pH: 6.06
L-arginine 4000 PPM, Day 1
  pH: 5.92
L-arginine 4000 PPM, Day 7
  pH: 5.90
L-arginine 4000 PPM, Day 14
  pH: 5.96
L-arginine 4000 PPM, Day 28
  pH: 6.00
L-arginine 5000 PPM, Day 1
  pH: 5.87
L-arginine 5000 PPM, Day 7
  pH: 5.92
L-arginine 5000 PPM, Day 14
  pH: 5.94
L-arginine 5000 PPM, Day 28
  pH: 6.01
[2]; 2 mM L-arginine, cooked
  pH after 2 hours of sample immersion: 5.88^a
[2]; 2 mM L-arginine, raw
  pH after 2 hours of sample immersion: 5.84^a
[2]; 4 mM L-arginine, cooked
  pH after 2 hours of sample immersion: 5.86^a
[2]; 4 mM L-arginine, raw
  pH after 2 hours of sample immersion: 5.85^a
[2]; 8 mM L-arginine, cooked
  pH after 2 hours of sample immersion: 5.87^a
[2]; 8 mM L-arginine, raw
  pH after 2 hours of sample immersion: 5.83^a
[2]; 16 mM L-arginine, cooked
  pH after 2 hours of sample immersion: 5.94^a
[2]; 16 mM L-arginine, raw
  pH after 2 hours of sample immersion: 5.88^a
[2]; 32 mM L-arginine, cooked
  pH after 2 hours of sample immersion: 6.05^a
[2]; 32 mM L-arginine, raw
  pH after 2 hours of sample immersion: 6.01^a
[2]; range over raw and cooked, 0-32 mM
  sample pH after the immersion phase: 5.83-6.05
[3]; High (5000 ppm) L-arginine, 8 days post thermal processing, refrigerated vacuum packaged
  Nitrite: 48.12^a ppm
[3]; High (5000 ppm) L-arginine, one day after thermal processing
  Nitrite: 66.73^a ppm
[3]; Low (1000 ppm) L-arginine, 8 days post thermal processing, refrigerated vacuum packaged
  Nitrite: 37.78^a ppm
[3]; Low (1000 ppm) L-arginine, one day after thermal processing
  Nitrite: 79.16^a ppm
[3]; during 8 days of refrigerated vacuum packaged storage
  residual nitrite decrease: 20-30 ppm
[4]; injected loin sections and immersion cured tenderloins, cooked to 145° F.
  nitrosylation or cure color formation after thermal processing: no color change
[4]; loin, 10% injection of test brine (Table 10)
  End pH: 5.56
[4]; loin, 15% injection of test brine (Table 10)
  End pH: 5.60
[4]; loin, 20% injection of test brine (Table 10)
  End pH: 5.62
[4]; loin, 25% injection of test brine (Table 10)
  End pH: 6.51
[4]; tenderloin, immersion in test brine (Table 10) approximately 18 hr
  End pH: 6.10 and 6.15 and 6.13 and 6.12
[4]; test brine of Table 10: L-arginine 5574.90 ppm, no phosphate
  Brine pH: 10.79
